The values that follow come from BindingDB's records for doi:10.1021/cb400407c (Duke University Medical Center, 2013).

Common to all, as to test: Kinome Profiling
Test [1] deals with Serine/threonine-protein kinase pim-2 (Homo sapiens, UniProt Q9P1W9). The procedure: (§1) HS38 was evaluated using a P-33 ATP filter-binding assay by the International Centre for Kinase Profiling (University of Dundee) against 124 purified protein kinases using previously described methods.
Test [2] deals with Serine/threonine-protein kinase pim-3 (Homo sapiens, UniProt Q86V86). The procedure: as §1
The target in test [3] is Serine/threonine-protein kinase pim-1 (Homo sapiens, UniProt P11309). The procedure:
as §1

The target in test [4] is Rho-associated protein kinase 2 (Homo sapiens, UniProt O75116). The procedure: as §1
Test [5] concerns the target Death-associated protein kinase 1 (Homo sapiens, UniProt P53355). As for the experimental part: as §1

SMILES strings stand for the structures. Where “and” joins values, the source holds several entries; their conditions need not be identical. Identical values can stand only once.

Death-associated protein kinase 1, sequence (P53355 whole entry): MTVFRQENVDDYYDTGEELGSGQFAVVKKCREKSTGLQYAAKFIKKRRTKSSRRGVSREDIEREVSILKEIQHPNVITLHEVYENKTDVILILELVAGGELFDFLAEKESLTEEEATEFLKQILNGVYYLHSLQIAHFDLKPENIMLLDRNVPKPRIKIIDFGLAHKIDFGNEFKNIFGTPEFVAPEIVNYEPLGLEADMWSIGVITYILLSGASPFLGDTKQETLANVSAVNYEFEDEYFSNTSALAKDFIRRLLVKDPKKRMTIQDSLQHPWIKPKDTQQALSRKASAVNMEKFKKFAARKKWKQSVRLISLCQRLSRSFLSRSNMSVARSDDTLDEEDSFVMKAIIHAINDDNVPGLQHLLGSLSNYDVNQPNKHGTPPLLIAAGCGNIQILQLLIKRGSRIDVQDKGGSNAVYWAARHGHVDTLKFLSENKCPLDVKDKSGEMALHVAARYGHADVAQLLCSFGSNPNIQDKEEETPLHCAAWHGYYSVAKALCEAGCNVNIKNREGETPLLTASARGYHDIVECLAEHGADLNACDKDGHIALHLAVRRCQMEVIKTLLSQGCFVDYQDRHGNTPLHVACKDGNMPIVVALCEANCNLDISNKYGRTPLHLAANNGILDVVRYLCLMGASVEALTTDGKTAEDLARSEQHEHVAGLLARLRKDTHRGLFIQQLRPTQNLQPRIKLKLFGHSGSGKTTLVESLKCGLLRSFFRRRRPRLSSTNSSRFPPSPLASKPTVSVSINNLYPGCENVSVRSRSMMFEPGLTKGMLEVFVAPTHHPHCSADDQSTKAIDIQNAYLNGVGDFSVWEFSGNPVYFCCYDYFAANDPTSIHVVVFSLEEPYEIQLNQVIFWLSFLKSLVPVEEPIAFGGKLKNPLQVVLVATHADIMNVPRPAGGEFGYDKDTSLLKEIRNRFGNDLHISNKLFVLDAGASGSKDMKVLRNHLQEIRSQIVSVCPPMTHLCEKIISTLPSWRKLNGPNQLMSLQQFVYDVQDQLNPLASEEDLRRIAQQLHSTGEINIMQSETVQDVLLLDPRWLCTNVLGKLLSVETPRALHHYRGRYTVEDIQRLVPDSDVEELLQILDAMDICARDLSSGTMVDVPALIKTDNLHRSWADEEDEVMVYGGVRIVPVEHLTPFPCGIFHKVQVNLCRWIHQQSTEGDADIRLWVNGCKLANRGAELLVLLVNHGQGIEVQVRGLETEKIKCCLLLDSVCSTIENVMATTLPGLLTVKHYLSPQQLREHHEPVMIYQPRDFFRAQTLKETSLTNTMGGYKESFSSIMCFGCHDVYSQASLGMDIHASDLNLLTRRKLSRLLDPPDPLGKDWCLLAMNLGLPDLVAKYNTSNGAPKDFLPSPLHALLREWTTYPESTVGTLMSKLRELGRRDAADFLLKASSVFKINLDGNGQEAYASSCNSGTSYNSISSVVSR
Serine/threonine-protein kinase pim-2, sequence (Q9P1W9 whole entry): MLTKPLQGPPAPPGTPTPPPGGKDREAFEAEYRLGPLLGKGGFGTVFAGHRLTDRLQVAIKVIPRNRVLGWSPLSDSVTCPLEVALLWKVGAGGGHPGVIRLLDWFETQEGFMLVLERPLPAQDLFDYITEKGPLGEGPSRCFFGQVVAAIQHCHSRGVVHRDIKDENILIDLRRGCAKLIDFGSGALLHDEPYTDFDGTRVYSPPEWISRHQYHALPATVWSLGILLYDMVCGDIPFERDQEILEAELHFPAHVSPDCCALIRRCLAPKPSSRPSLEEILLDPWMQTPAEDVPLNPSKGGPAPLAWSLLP
Serine/threonine-protein kinase pim-1, sequence (P11309 whole entry): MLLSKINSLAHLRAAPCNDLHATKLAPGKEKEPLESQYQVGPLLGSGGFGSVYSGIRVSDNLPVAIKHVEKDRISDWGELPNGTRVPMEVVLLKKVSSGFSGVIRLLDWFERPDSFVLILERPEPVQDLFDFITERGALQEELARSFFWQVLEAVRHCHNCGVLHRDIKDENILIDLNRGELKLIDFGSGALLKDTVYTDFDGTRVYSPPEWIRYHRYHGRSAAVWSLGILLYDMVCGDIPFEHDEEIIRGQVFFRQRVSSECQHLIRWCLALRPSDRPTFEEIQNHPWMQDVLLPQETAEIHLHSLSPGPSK
Rho-associated protein kinase 2, sequence (O75116 whole entry): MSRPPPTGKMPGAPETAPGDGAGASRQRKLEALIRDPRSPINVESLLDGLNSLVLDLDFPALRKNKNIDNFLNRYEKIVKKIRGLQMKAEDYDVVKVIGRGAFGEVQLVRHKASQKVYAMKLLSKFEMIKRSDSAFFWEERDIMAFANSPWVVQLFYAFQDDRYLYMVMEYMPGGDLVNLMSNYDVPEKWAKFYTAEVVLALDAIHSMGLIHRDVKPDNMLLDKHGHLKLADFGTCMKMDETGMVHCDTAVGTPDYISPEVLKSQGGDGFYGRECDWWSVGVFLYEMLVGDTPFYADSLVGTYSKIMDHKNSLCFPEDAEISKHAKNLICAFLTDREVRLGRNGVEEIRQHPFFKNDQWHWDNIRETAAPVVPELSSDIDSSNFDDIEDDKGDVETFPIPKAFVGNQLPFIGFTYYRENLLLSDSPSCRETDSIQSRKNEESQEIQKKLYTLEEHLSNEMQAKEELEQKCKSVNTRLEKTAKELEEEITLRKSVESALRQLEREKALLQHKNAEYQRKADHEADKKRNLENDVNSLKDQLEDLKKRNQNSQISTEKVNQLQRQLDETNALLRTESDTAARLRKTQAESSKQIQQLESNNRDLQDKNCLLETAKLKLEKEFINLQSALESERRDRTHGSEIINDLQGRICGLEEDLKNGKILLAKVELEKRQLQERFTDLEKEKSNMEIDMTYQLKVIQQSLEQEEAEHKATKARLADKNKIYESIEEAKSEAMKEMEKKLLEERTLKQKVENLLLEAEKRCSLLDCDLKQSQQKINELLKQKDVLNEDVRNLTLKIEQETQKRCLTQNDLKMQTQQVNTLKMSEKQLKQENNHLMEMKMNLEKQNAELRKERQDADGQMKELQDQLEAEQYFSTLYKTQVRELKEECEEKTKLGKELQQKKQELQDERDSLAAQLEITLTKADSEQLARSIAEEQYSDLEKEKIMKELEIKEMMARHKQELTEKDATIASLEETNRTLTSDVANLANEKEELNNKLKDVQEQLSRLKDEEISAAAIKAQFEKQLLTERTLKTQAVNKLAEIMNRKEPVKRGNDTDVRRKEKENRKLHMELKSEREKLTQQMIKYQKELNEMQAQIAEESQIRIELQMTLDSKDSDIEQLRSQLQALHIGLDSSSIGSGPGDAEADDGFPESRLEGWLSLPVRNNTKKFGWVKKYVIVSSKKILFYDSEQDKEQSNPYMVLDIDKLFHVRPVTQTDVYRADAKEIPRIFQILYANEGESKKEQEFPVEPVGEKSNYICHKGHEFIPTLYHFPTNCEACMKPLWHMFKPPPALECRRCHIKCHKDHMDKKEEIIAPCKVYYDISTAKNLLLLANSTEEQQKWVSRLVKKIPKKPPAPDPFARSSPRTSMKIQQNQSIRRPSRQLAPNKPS

`CC(Sc1nc2c(cnn2-c2cccc(Cl)c2)c(=O)[nH]1)C(N)=O` (centres undefined) [HS38]: the Kd in test [1] was 6.5 µM; in test [2], 0.81 µM; in test [3], 1.8 µM; in test [5], 0.3 µM and 0.079 µM and 0.28 µM. For the same compound, the IC50 in test [4] was above 200 µM.
With `O=c1[nH]c(SCCO)nc2c1cnn2-c1cccc(Cl)c1` [HS43], the Kd in test [1] is 3.2 µM; in test [2], 1.6 µM; in test [3], 1.8 µM; in test [5], 1.5 µM and 0.32 µM.

In general, Kd refers to a measure of binding affinity in units of concentration. As usually defined, the IC50 is the concentration that gives 50% inhibition. Higher therefore signals weaker potency.
